In patent publication US8466153B2, “Piperidinylamino-pyridazines and their use as fast dissociating dopamine 2 receptor antagonists” (Janssen Pharmaceutica N.V., priority 2006, dated 2013):
Like-named read-outs stand apart in the source and are kept apart here.

How the values were obtained:
[1] = molecular target: T1, human Dopamine D2L receptor (Homo sapiens, UniProt P14416); test: In vitro binding affinity for human D2L receptor ([3H]spiperone competition); conditions: membranes of human D2L receptor-transfected CHO cells, 30 min, 37° C.
T1 construct: expressed in transfected cells; host or cells: CHO cells
Source text: In order to find antipsychotic compounds active against positive symptoms and having an improved safety profile (low EPS incidence and no metabolic disorders), we have screened for compounds selectively interacting with the dopamine D2 receptor and dissociating fast from this receptor. Compounds were first screened for their D2 affinity in a binding assay using [^3H]spiperone and human D2L receptor cell membranes.
Frozen membranes of human Dopamine D2L receptor-transfected CHO cells were thawed, briefly homogenised using an Ultra-Turrax T25 homogeniser and diluted in Tris-HCl assay buffer containing NaCl, CaCl2, MgCl2, KCl (50, 120, 2, 1, and 5 mM respectively, adjusted to pH 7.7 with HCl) to an appropriate protein concentration optimised for specific and non-specific binding. Radioligand [^3H]Spiperone (NEN, specific activity ˜70 Ci/mmol) was diluted in assay buffer at a concentration of 2 nmol/L. Prepared radioligand (50 μl), along with 50 μl of either the 10% DMSO control, Butaclamol (10^−6 mol/l final concentration), or compound of interest, was then incubated (30 min, 37° C.) with 400 μl of the prepared membrane solution. Membrane-bound activity was filtered through a Packard Filtermate harvester onto GF/B Unifilterplates and washed with ice-cold Tris-HCl buffer (50 mM; pH 7.7; 6×0.5 ml). Filters were allowed to dry before adding scintillation fluid and counting in a Topcount scintillation counter. Percentage specific bound and competition binding curves were calculated using S-Plus software (Insightful).

[2] = test system: Apomorphine-induced agitation, stereotypy in rats; test: Inhibition of the apomorphine induced agitation test in rats; type: in vivo; conditions: Rattus norvegicus, 0.5 h, apomorphine 1.0 mg/kg i.v. at 30 min, male Wiga Wistar rats
Protocol: Male Wiga Wistar rats (180-280 g) were administered test compound (sc: subcutaneously; po: orally; n=3 per dose; dose=0.16, 0.63 and 2.5 mg/kg) or solvent and then challenged with apomorphine (1.0 mg/kg, i.v.) at 30 min. The effects of the test compound on the behavioral changes were evaluated according to all-or-none criteria based on the distribution of results in a large series of control data obtained in solvent-pretreated rats.
Apomorphine (1.0 mg/kg, i.v.)-induced agitation, stereotypy (compulsive sniffing, licking, chewing), was scored every 5 min over the first hour after injection of apomorphine. The score system was: (3) pronounced, (2) moderate, (1) slight, and (0) absent. […] The table below gives the lowest active dose at which 3 out of 3 rats tested met one of the criteria for drug-induced inhibition of agitation.

human D2L receptor = molecular target: T2, human D2L receptor (Homo sapiens, UniProt P14416); test: Fast dissociation (indirect [3H]spiperone filter assay); type: binding; conditions: compound at 4 times its IC50 pre-incubated 1 h at 25° C.; [3H]spiperone 1 nM on filter for 5 minutes
T2 construct: expressed in transfected cells
Protocol: Compounds were first screened for their D2 affinity in a binding assay using [^3H]spiperone and human D2L receptor cell membranes.
Immediately after, the vacuum was released. 0.4 ml of pre-warmed buffer (25° C.) containing 1 nM [^3H]spiperone was added on the filter for 5 minutes. The incubation was stopped by initiating the vacuum and immediate rinsing with 2×5 ml of ice-cold buffer. The filter-bound radioactivity was measured in a liquid scintillation spectrometer. The principle of the assay is based on the assumption that the faster a compound dissociates from the D2 receptor, the faster [^3H]spiperone binds to the D2 receptor.

[3] = test system: panel of more than 50 common G-protein coupled receptors (CEREP); test: Screen in a panel of more than 50 common G-protein coupled receptors (CEREP); type: binding; conditions: panel of more than 50 GPCRs
Source text: Selected compounds E15, E16, E17 and E18 were further screened in a panel of more than 50 common G-protein coupled receptors (CEREP) and found to have a clean profile, that is to have low affinity for the tested receptors.

[4] = sc, subcutaneously, read-out: sc Dose: lowest active dose at which 3 out of 3 rats met a criterion for inhibition of agitation
[5] = po, orally, read-out: po Dose: lowest active dose at which 3 out of 3 rats met a criterion for inhibition of agitation

T1 sequence (P14416 whole entry): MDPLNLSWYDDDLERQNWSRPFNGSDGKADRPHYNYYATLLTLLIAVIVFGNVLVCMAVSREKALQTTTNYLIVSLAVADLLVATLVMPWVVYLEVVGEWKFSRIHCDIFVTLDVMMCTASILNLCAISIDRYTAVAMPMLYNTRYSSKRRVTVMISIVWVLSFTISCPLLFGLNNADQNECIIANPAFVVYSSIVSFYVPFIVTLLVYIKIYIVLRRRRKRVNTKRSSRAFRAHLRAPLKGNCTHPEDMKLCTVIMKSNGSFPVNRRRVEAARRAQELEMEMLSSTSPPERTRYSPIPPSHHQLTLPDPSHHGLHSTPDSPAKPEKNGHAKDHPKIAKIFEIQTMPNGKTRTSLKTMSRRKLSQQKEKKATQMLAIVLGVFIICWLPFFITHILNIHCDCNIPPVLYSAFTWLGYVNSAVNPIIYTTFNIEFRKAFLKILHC
T2 sequence (P14416 whole entry): as above

IC50 [1] | melting point | % Dissociation (human D2L receptor) | affinity profile for the tested receptors [3] | Structure (SMILES) | minimal effective dose [2, 4] | minimal effective dose [2, 5]
2.95 µM | – | – | – | N#Cc1ccc(NC2CCN(Cc3ccccc3)CC2)nn1 [Example D2, 6-(1-Benzyl-piperidin-4-ylamino)-pyridazin-3-carbonitrile] | 2.5 mg/kg | –
4.07 µM | 189.86 °C | – | – | N#Cc1ccc(NC2CCN(Cc3ccc(F)c(F)c3)CC2)nn1 [Example E1, 6-[1-(3,4-Difluoro-benzyl)-piperidin-4-ylamino]-pyridazine-3-carbonitrile] | 2.5 mg/kg | –
3.24 µM | 187.44 °C | – | – | N#Cc1ccc(NC2CCN(Cc3ccc(F)cc3)CC2)nn1 [Example E2, 6-[1-(4-Fluoro-benzyl)-piperidin-4-ylamino]-pyridazine-3-carbonitrile] | 0.63 mg/kg | 0.63 mg/kg
1.05 µM | 209.77 °C | 87% | – | N#Cc1ccc(NC2CCN(Cc3ccc(Cl)cc3)CC2)nn1 [Example E3, 6-[1-(4-Chloro-benzyl)-piperidin-4-ylamino]-pyridazine-3-carbonitrile] | 0.63 mg/kg | –
0.407 µM | 171.84 °C | 82% | – | Cc1ccc(CN2CCC(Nc3ccc(C#N)nn3)CC2)cc1F [Example E4, 6-[1-(3-Fluoro-4-methyl-benzyl)-piperidin-4-ylamino]-pyridazine-3-carbonitrile] | 0.16 mg/kg | –
6.03 µM | 190.3 °C | – | – | N#Cc1ccc(NC2CCN(Cc3cccc(F)c3)CC2)nn1 [Example E5, 6-[1-(3-Fluoro-benzyl)-piperidin-4-ylamino]-pyridazine-3-carbonitrile] | 2.5 mg/kg | –
0.955 µM | 191.62 °C | 84% | – | Cc1ccc(CN2CCC(Nc3ccc(C#N)nn3)CC2)cc1 [Example E6, 6-[1-(4-Methyl-benzyl)-piperidin-4-ylamino]-pyridazine-3-carbonitrile] | 2.5 mg/kg | –
> 10 µM | 243.1 °C | 93.50% | – | N#Cc1ccc(NC2CCN(Cc3ccc(C(F)(F)F)cc3)CC2)nn1 [Example E7, 6-[1-(4-Trifluoromethyl-benzyl)-piperidin-4-ylamino]-pyridazine-3-carbonitrile] | 0.63 mg/kg | 2.5 mg/kg
7.59 µM | 178.6 °C | 89.50% | – | N#Cc1ccc(NC2CCN(Cc3ccc(C(F)(F)F)c(F)c3)CC2)nn1 [Example E8, 6-[1-(3-Fluoro-4-trifluoromethyl-benzyl)-piperidin-4-ylamino]-pyridazine-3-carbonitrile] | 2.5 mg/kg | 2.5 mg/kg
6.76 µM | 183.1 °C | – | – | N#Cc1ccc(NC2CCN(Cc3ccc(F)c(C(F)(F)F)c3)CC2)nn1 [Example E9, 6-[1-(4-Fluoro-3-trifluoromethyl-benzyl)-piperidin-4-ylamino]-pyridazine-3-carbonitrile] | 2.5 mg/kg | –
6.46 µM | 187.3 °C | – | – | Cc1ccc(CN2CCC(Nc3ccc(C#N)nn3)CC2)cc1C(F)(F)F [Example E10, 6-[1-(4-Methyl-3-trifluoromethyl-benzyl)-piperidin-4-ylamino]-pyridazine-3-carbonitrile] | > 2.5 mg/kg | –
> 10 µM | 125 °C | – | – | N#Cc1ccc(NC2CCN(Cc3cc(C(F)(F)F)cc(C(F)(F)F)c3)CC2)nn1 [Example E11, 6-[1-(3,5-Bis-trifluoromethyl-benzyl)-piperidin-4-ylamino]-pyridazine-3-carbonitrile] | – | –
6.31 µM | 142.5 °C | – | – | N#Cc1ccc(NC2CCN(Cc3cc(C(F)(F)F)ccc3F)CC2)nn1 [Example E12, 6-[1-(2-Fluoro-5-trifluoromethyl-benzyl)-piperidin-4-ylamino]-pyridazine-3-carbonitrile] | > 2.5 mg/kg | –
3.24 µM | 151 °C | – | – | N#Cc1ccc(NC2CCN(Cc3cccc(Cl)c3)CC2)nn1 [Example E13, 6-[1-(3-Chloro-benzyl)-piperidin-4-ylamino]-pyridazine-3-carbonitrile] | 2.5 mg/kg | –
> 10 µM | – | – | – | N#Cc1ccc(NC2CCN(Cc3ccc(OC(F)(F)F)c(Cl)c3)CC2)nn1 [Example E14, 6-[1-(3-Chloro-4-trifluoromethoxy-benzyl)-piperidin-4-ylamino]-pyridazine-3-carbonitrile] | – | –
6.61 µM | 187.9 °C | 93.50% | low affinity | N#Cc1ccc(NC2CCN(Cc3cc(F)cc(F)c3)CC2)nn1 [Example E15, 6-[1-(3,5-Difluoro-benzyl)-piperidin-4-ylamino]-pyridazine-3-carbonitrile] | 0.63 mg/kg | 1.25 mg/kg
1.41 µM | 170.3 °C | 79.50% | low affinity | N#Cc1ccc(NC2CCN(Cc3cccc(C(F)(F)F)c3)CC2)nn1 [Example E16, 6-[1-(3-Trifluoromethyl-benzyl)-piperidin-4-ylamino]-pyridazine-3-carbonitrile] | 0.63 mg/kg | 0.63 mg/kg
3.02 µM | 151.4 °C | 73% | low affinity | N#Cc1ccc(NC2CCN(Cc3cc(F)cc(C(F)(F)F)c3)CC2)nn1 [Example E17, 6-[1-(3-Fluoro-5-trifluoromethyl-benzyl)-piperidin-4-ylamino]-pyridazine-3-carbonitrile] | 0.63 mg/kg | 1.25 mg/kg
5.75 µM | 185 °C | 95% | low affinity | N#Cc1ccc(NC2CCN(Cc3cc(F)c(F)c(F)c3)CC2)nn1 [Example E18, 6-[1-(3,4,5-Trifluoro-benzyl)-piperidin-4-ylamino]-pyridazine-3-carbonitrile] | 0.63 mg/kg | 1.25 mg/kg
1.82 µM | – | 83.66% | – | Cc1c(C#N)nnc(NC2CCN(Cc3cc(F)cc(F)c3)CC2)c1C [Example E19, 6-[1-(3,5-Difluoro-benzyl)-piperidin-4-ylamino]-4,5-dimethyl-pyridazine-3-carbonitrile] | 0.63 mg/kg | 2.5 mg/kg
6.17 µM | – | – | – | Cc1cc(NC2CCN(Cc3cc(F)cc(F)c3)CC2)nnc1C#N [Example E20, 6-[1-(3,5-Difluoro-benzyl)-piperidin-4-ylamino]-4-methyl-pyridazine-3-carbonitrile] | 2.5 mg/kg | –
